Results reported in patent publication US11536729B2, “Method of identifying novel protein aggregation inhibitors based on chemical kinetics” (Cambridge Enterprise Limited, priority 2016, dated 2022).

Legend:
Aβ42 [1] = biological target: T1, Aβ42 (Homo sapiens, UniProt P05067); test: ThT Aβ42 aggregation kinetics with 10% pre-formed fibril seeds (elongation dominant); assay type: biochemical; conditions: 2 μM Aβ42, 10-fold excess
T1 construct: The recombinant Aβ (M1-42) peptide; made in house; host or cells: E. coli BL21 Gold (DE3)
Procedure: (§1) Samples were then collected from the wells into low-binding tubes and sonicated for 2 min in a sonicator bath at room temperature. Under the considered conditions (i.e. 4 μM Aβ42), the monomer concentration is negligible at equilibrium (31). The final concentration of fibrils, in monomer equivalents, was considered equal to the initial concentration of monomer. Fibrils were then added to freshly prepared monomer in order to reach either 5% or 10% fibrils final concentration.
(§2) Assays were initiated by placing the 96-well plate at 37° C. under quiescent conditions in a plate reader (Fluostar Omega, Fluostar Optima or Fluostar Galaxy, BMGLabtech, Offenburg, Germany). The ThT fluorescence was measured through the bottom of the plate with a 440 nm excitation filter and a 480 nm emission filter. The ThT fluorescence was followed for three repeats of each sample. […]

[2] = system: C. elegans CL2122 (control-worm); test: C. elegans motility assay, control-worm model; design: species or system Caenorhabditis elegans; conditions: in vivo
Procedure: Standard conditions were used for Caenorhabditis elegans propagation at 20° C. (53). Briefly, animals were synchronized by hypochlorite bleaching, hatched overnight in M9 buffer, and subsequently cultured on nematode growth medium (NGM, USP agar) plates seeded with the E. coli strain OP50. Saturated cultures of OP50 were grown by inoculating 50 mL of LB medium with OP50 and incubating the culture for 16 h at 37° C. NGM plates were seeded with bacteria by adding 350 μl of saturated OP50 to each plate and leaving the plates at room temperature for 2-3 days. […]
All populations were cultured at 20° C. and developmentally synchronized from a 4 h egg-lay. At 64-72 h post egg-lay (time zero) individuals were shifted to 23° C. or 25° C., and body movement assessed over time as indicated. At different ages, animals were washed out of the plates with M9 and spread over an un-seeded 6 cm plate, after which their movements were recorded at 30 fps using a home-made microscopic setup, at 0.75× magnification, for 30 s or 1 min. 200 animals were counted per experiment unless stated otherwise. […]
Videos were elaborated using ImageJ (National Institutes of Health, Bethesda, Md., USA), and body bends were quantified using the wrMTrck plug-in (http://www.phage.dk/plugins/wrmtrck.html), developed by Jesper Søndergaard Pedersen.

Aβ42 [3] = biological target: T1, Aβ42; test: ThT Aβ42 aggregation kinetics with 1-5% pre-formed fibril seeds (surface-catalyzed secondary nucleation); assay type: biochemical; conditions: 2 μM Aβ42, 0.5- and 5-fold excess
Procedure: For the seeded experiments, preformed fibrils were prepared just prior to the experiment. Kinetic experiments were set up just as above for a […] Aβ42 samples in 20 mM sodium phosphate buffer, pH 8 with 200 μM EDTA, 0.02% NaN3 and 20 μM ThT. The ThT fluorescence was monitored for 3 hours to verify the formation of fibrils.
as §1, §2
For the seeded experiments, preformed fibrils were prepared just prior to the experiment. […] The ThT fluorescence was monitored for 3 hours to verify the formation of fibrils. […]

T1 sequence (P05067 672-713 limits assumed): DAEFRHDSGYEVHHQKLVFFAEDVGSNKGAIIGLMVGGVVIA

Compound: C=C(c1ccc(C(=O)O)cc1)c1cc2c(cc1C)C(C)(C)CCC2(C)C [bexarotene]
- effect on aggregation kinetics with 10% fibril seeds (Aβ42 [1]): no effect was observed
- effect in control-worm model [2]: did not show any effects
- effect on aggregation kinetics with 5% pre-formed fibril seeds (Aβ42 [3]): concentration-dependent bexarotene-induced delay
